Legend:
[1] = Inhibition of topoisomerase 1 in Saccharomyces cerevisiae RS321N in galactose medium by microtiter plate assay
[2] = Inhibition of topoisomerase 1 in Saccharomyces cerevisiae RS321N in glucose medium by microtiter plate assay

Row | SMILES | IC50 [1] [µM] | IC50 [2] [µM]
1 | COc1ccc(CCc2cc(OC)c(OC)c(OC)c2)c(O[C@H]2O[C@@H](CO)[C@H](O)[C@@H](O)[C@@H]2O)c1O | 138 | > 201
2 | COc1ccc(/C=C\c2cc(OC)c(OC)c(OC)c2)c(O)c1O [combretastatins A-1] | 4.81 | 5.71
